# According to PMC8580050, “Improvement of the antimicrobial potency, pharmacokinetic and pharmacodynamic properties of albicidin by incorporation of nitrogen atoms” (Chemical Science, 2021):
# Experiments:
# [1] = tested on: K. pneumoniae (ciprofloxacin resistant clinical isolate); assay: microbe, parasite or virus in culture; assay type: cell-based; conditions: Klebsiella pneumoniae
# Method: (§1) 1.1.1 In vitro experiments
# (§2) Determination of Minimal inhibitory concentrations (MIC)
# (§3) Approved Standard M07-A9.1
# (§4) CFU mL-1. […] Albicidin and […]
# (§5) and serially diluted in DMSO (100%). […]
# (§6) in 0.1 N HCL, respectively.
# (§7) One row of each well plate served as a […]
# (§8) sterility control (only MHB II-media). […]
# (§9) adding 5 µL DMSO to several wells. […]
# (§10) for growth inhibition by naked eye.
# (§11) Microorganisms and Cell Cultures (DSMZ): […]
# (§12) Dr. Werner (Robert-Koch-Institut, Wernigerode, Germany): […]
# [2] = tested on: Salmonella Kentucky (ciprofloxacin resistant clinical isolate); assay: microbe, parasite or virus in culture; assay type: cell-based; conditions: Salmonella enterica
# Method: as §1, §2, §3, §4, §5, §6, §7, §8, §9, §10, §11, §12
# E. coli BW25113 = assay: MIC determination (broth microdilution); assay type: cell-based; conditions: Escherichia coli
# Method: as §1, §2, §3, §4, §5, §6, §7, §8, §9, §10, §11
# B. subtilis DSM 10 = assay: MIC determination (broth microdilution); assay type: cell-based; conditions: Bacillus subtilis, DSM10
# Method: as §1, §2, §3, §4, §5, §6, §7, §8, §9, §10, §11
# [3] = tested on: Salmonella Kentucky (ciprofloxacin susceptible clinical isolate); assay: MIC, extended panel; assay type: cell-based; conditions: Salmonella enterica
# Method: as §1, §2, §3, §4, §5, §6, §7, §8, §9, §10, §11, §12
# [4] = tested on: E. coli (ciprofloxacin susceptible clinical isolate); assay: MIC, extended panel; assay type: cell-based; conditions: Escherichia coli
# Method: as §1, §2, §3, §4, §5, §6, §7, §8, §9, §10, §11, §12
# [5] = tested on: E. coli DSM 1116 + 50% Human Serum; assay: MIC determination in presence of 50% human serum; assay type: cell-based; conditions: Escherichia coli, DSM1116
# Text: This investigation was completed by assessment of the antibacterial activity in presence of human plasma (50%) (Table 1), since high plasma protein binding can severely impair antibacterial activity and thus efficacy.
# as §1, §2, §3, §4, §5, §6, §7, §8, §9, §10, §11
# [6] = tested on: S. aureus (ciprofloxacin resistant clinical isolate); assay: microbe, parasite or virus in culture; assay type: cell-based, Staphylococcus aureus; conditions: Staphylococcus aureus
# Method: as §1, §2, §3, §4, §5, §6, §7, §8, §9, §10, §11, §12
# (§13) for the following 11 pathogenic isolates: […]
# in vivo = conditions: male, CD-1, mouse, whole blood, iv, 50 mg/kg
# [7] = tested on: S. aureus (ciprofloxacin susceptible clinical isolate); assay: MIC, extended panel; assay type: cell-based; conditions: Staphylococcus aureus
# Method: as §1, §2, §3, §4, §5, §6, §7, §8, §9, §10, §11, §12, §13
# [8] = tested on: A. baumannii (ciprofloxacin resistant isolate); assay: microbe, parasite or virus in culture; assay type: cell-based, Acinetobacter baumannii; conditions: Acinetobacter baumannii
# Method: as §1, §2, §3, §4, §5, §6, §7, §8, §9, §10, §11, §12, §13
# Formulation studies = assay type: physicochemical; conditions: DMSO/PEG400 (10 : 90), 10 mg ml-1
# Method: of preclinical formulations in a final concentration of 10 mg ml-1. All experimental procedures were carried out in cooperation with Pharmacelsus GmbH (Saarbrucken, Germany) according to Table S6.
# 1.1.2 Tolerability assessment and pharmacokinetic study
# In vivo tolerability studies as well as determinations of pharmacokinetic parameters were carried out in cooperation with Pharmacelsus GmbH (Saarbrucken, Germany).
# For tolerability assessment adult male CD-1 mice (RjOrl:SWISS, 7 weeks old) were purchased from Janvier Labs (France). For pharmacokinetic studies 6 weeks old, male CD-1 mice (RjOrl:SWISS, Janvier Labs, France) were used. The animals were allowed to acclimatize for at least seven days before the start of experiments. Housing was realized in a temperature-controlled room (20-24°C) and mice were exposed to a 12h light/dark cycle. Mice had access to food and water ad libitum throughout the study.
# All experimental procedures were approved by and conducted in accordance with the regulations of local Animal Welfare authorities (Landesamt für Gesundheit und Verbraucherschutz, Abteilung Lebensmittel- und Veterinärwesen, Saarbrücken, Germany).
# E. coli DNA gyrase = biological target: T1, E. coli DNA gyrase (Escherichia coli, UniProt P0AES4+P0AES6); assay: E. coli gyrase supercoiling inhibition assay; assay type: biochemical; parameters: key: ↑: for stronger inhibition; ≈: for equal inhibition; ↓: for diminished inhibition compared to albicidin 1; conditions: constant concentration of 45 nM, compared to albicidin 1
# T1 construct: purchased inspiralis Limited, Norwich, UK
# T1 sequence (P0AES4 whole entry, one chain of several): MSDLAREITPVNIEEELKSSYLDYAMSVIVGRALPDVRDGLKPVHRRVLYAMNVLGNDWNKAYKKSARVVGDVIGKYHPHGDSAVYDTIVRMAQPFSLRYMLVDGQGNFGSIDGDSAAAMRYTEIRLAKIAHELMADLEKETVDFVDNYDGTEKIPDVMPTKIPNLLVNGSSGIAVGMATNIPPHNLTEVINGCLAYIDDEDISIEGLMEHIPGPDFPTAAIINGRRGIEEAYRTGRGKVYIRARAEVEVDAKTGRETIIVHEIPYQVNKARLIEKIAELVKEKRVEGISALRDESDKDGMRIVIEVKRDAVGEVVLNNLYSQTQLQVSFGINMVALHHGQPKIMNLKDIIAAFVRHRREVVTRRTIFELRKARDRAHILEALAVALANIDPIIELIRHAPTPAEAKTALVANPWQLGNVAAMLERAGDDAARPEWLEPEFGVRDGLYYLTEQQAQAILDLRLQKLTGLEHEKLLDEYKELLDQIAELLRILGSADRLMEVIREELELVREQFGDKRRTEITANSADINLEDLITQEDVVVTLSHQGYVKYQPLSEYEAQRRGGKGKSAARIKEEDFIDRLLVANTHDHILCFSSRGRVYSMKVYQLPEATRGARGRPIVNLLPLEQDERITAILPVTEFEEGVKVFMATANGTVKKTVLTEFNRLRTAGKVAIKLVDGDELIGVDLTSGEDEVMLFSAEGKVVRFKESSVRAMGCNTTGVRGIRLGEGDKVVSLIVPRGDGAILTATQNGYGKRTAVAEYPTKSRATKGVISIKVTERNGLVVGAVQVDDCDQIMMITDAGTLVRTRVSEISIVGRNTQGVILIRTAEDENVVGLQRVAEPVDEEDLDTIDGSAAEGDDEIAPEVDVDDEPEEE
# Method: Escherichia coli Gyrase Supercoiling Inhibition Assay
# loaded on an agarose gel.
# 2-15. […] Addition of DNA
# All derivatives were tested at a concentration of […]
# S. Typhimurium TA100 = assay: MIC determination (broth microdilution); assay type: cell-based, Salmonella typhimurium; conditions: Salmonella enterica, TYPHIMURIUM
# Method: as §1, §2, §3, §4, §5, §6, §7, §8, §9, §10, §11
# M. phlei DSM 750 = assay: MIC determination (broth microdilution); assay type: cell-based, Mycobacterium phlei; conditions: Mycolicibacterium phlei, DSM750
# Method: as §1, §2, §3, §4, §5, §6, §7, §8, §9, §10
# [9] = tested on: E. faecium (ciprofloxacin resistant clinical isolate); assay: microbe, parasite or virus in culture; assay type: cell-based; conditions: Enterococcus faecium
# Method: as §1, §2, §3, §4, §5, §6, §7, §8, §9, §10, §11, §12, §13
# [10] = tested on: P. aeruginosa (ciprofloxacin resistant clinical isolate); assay: microbe, parasite or virus in culture; assay type: cell-based; conditions: Pseudomonas aeruginosa
# Method: as §1, §2, §3, §4, §5, §6, §7, §8, §9, §10, §11, §12, §13
# HepG2 cells = assay: in vitro; conditions: human
# Method: (§14) Cell proliferation assay (HepG2 cells)
# (§15) The assay was performed by the company Eurofins (Taiwan). Cytotoxicity was representatively
# (§16) according to a protocol by Ansar et al.27 This is in line with previously published cytotoxicity data on
# (§17) GI = growth inhibition; TGI = total growth inhibition; LC = lethal concentration
# [11] = Cell proliferation assay (HepG2 cells); conditions: human
# Method: as §14, §15, §16, §17
# [12] = tested on: P. aeruginosa (ciprofloxacin susceptible clinical isolate); assay: MIC, extended panel; assay type: cell-based, Pseudomonas aeruginosa; conditions: Pseudomonas aeruginosa
# Method: as §1, §2, §3, §4, §5, §6, §7, §8, §9, §10, §11, §12, §13
# [13] = Pharmacokinetic study, i.v.; conditions: 50 mg kg^−1 i.v., after 24 h
# [14] = tested on: E. faecium (ciprofloxacin susceptible clinical isolate); assay: microbe, parasite or virus in culture; conditions: Enterococcus faecium
# in vitro = conditions: plasma, pH 7.4
# Method: Determination of plasma stability
# Human and murine plasma aliquots (Sigma-Aldrich, Taufkirchen, Germany) were thawed and subsequently centrifuged at 3000 rpm for 10 min at 4°C. Resulting supernatant was diluted in the same volume of phosphate buffer (pH 7.4) to obtain a plasma concentration of 50% (v/v). Stock solutions of […]
# concentration of 20 µM (5% DMSO). Following incubation at 37°C ice-cold methanol containing 30% […]
# were centrifuged at 4000 rpm for 20 min at 4°C and 100 µL of supernatant were directly transferred to a fresh MS-vial. Samples were analyzed by LC/MS-MS experiments. Quantification of remaining compounds was performed by an external calibration curve of standard solutions in the range of […]
# E. coli DSM 1116 = assay: MIC determination (broth microdilution); assay type: cell-based, Escherichia coli; conditions: Escherichia coli, DSM1116
# Method: as §1, §2, §3, §4, §5, §6, §7, §8, §9, §10, §11
# [15] = tested on: E. coli (ciprofloxacin resistant clinical isolate); assay: microbe, parasite or virus in culture; assay type: cell-based, Escherichia coli; conditions: Escherichia coli
# Method: as §1, §2, §3, §4, §5, §6, §7, §8, §9, §10, §11, §12
# M. luteus DSM1790 = assay: MIC determination (broth microdilution); assay type: cell-based, Micrococcus luteus; conditions: Micrococcus luteus, DSM1790
# Method: as §1, §2, §3, §4, §5, §6, §7, §8, §9, §10, §11
# [16] = tested on: K. pneumoniae (ciprofloxacin susceptible clinical isolate); assay: MIC, extended panel; assay type: cell-based, Klebsiella pneumoniae; conditions: Klebsiella pneumoniae
# Method: as §1, §2, §3, §4, §5, §6, §7, §8, §9, §10, §11, §12
structure (smiles),measurement,setting,value
"COc1c(NC(=O)c2ccc(NC(=O)c3ccc(NC(=O)[C@H](Cc4c[nH]nn4)NC(=O)c4ccc(NC(=O)/C(C)=C/c5ccc(O)cc5)cc4)cc3)c(OC)c2O)ccc(C(=O)O)c1O [Compound 2, AzaHis-albicidin]",MIC,[1],≥ 128 µg/mL
same,MIC,[2],0.125 µg/mL
same,MIC,E. coli BW25113,0.016 µg/mL
same,MIC,B. subtilis DSM 10,0.125 µg/mL
same,MIC,[3],0.063 µg/mL
same,MIC,[4],0.016 µg/mL
same,MIC,[5],2 µg/mL
same,MIC,[6],0.5 µg/mL
same,half-life,in vivo,10.1 h
same,MIC,[7],0.25 µg/mL
same,MIC,[8],2 µg/mL
same,appearance in formulation,Formulation studies,clear solution
same,E. coli gyrase inhibition,E. coli DNA gyrase,≈
same,MIC,S. Typhimurium TA100,0.016 µg/mL
same,MIC,M. phlei DSM 750,2 µg/mL
same,MIC,[9],64 µg/mL
same,MIC,[10],8 µg/mL
same,TGI (total growth inhibition),HepG2 cells,> 16 µM
same,CC50,[11],> 16 µM
same,GI50,[11],> 16 µM
same,MIC,[12],4 µg/mL
same,plasma level as multiple of MIC for E. coli,[13],higher than 5 times MIC
same,MIC,[14],0.25 µg/mL
same,half-life at 20 µM,in vitro; human,> 4 h
same,half-life at 20 µM,in vitro; mouse,1.58 h
same,MIC,E. coli DSM 1116,0.016 µg/mL
same,MIC,[15],0.063 µg/mL
same,MIC,M. luteus DSM1790,1 µg/mL
same,MIC,[16],16 µg/mL
